The test system of experiment [1] is human platelet-rich plasma. The experiment can be described thus: Inhibition of arachidonic acid-induced aggregation in human platelet-rich plasma. It is filed as cell-based. As to the method: The R- and S-enantiomers were tested as inhibitors of arachidonic acid-induced aggregation in human platelet-rich plasma. Data for individual experiments (2 separate donors) are given as pIC50 (log molar inhibitory concentration of each drug which blocks aggregation to arachidonic acid by 50%) Inhibitors were preincubated for 1 minute prior to addition of arachidonic acid (200-400 μM). Changes in light transmission were measured as an index of aggregation and quantified after 4 minutes.

For another experiment, the system named is human platelet. As to conditions: cited from earlier work; for IC50: literature, read-out: IC50, inhibition of AA-induced platelet aggregation.
The subject of a further experiment is platelet function. As to conditions: cited from earlier work.
[2] abbreviates: Homo sapiens, arithmetic average of raw data, N = 3, read-out: inhibitory concentration which blocks aggregation by 50%, AVE.
The mark [3] stands for this setting: Homo sapiens, average, N = 3, read-out: pIC50 (-1xLOG(0.000001xDATA)), AVE (converted).
[4] abbreviates: Homo sapiens, geometric mean, N = 3, read-out: inhibitory concentration which blocks aggregation by 50%, back-transformed data (Geometric mean) AVE.

This is an account of results in patent US5656662A, “Synthesis of optically pure 4-alkenyl- or 4-alkanyl-2-hydroxytetronic acids” (The Ohio State University Research Foundation, priority 1995, dated 1997).

Several values for one entry are separate records, joined by “and”; a condition that tells them apart may be missing. Equal entries are not always repeated. Where two headings read alike, the source gives them in different places.

For `CCCCC/C=C\C/C=C\C/C=C\C/C=C\CC[C@H]1OC(=O)C(O)=C1O` [(R)-3,4-Dihydroxy-5-[all-Z)-3,6,9,12-octadecatetraenyl]-2(51H)-furanone], the IC50 is 653 µM in experiment [1] (setting [2]); 647 µM in experiment [1] (setting [3]); 647 µM in experiment [1] (setting [4]); 764 µM in experiment [1] (Homo sapiens, individual experiments, human platelet-rich plasma, arachidonic acid 200-400 μM, 1 minute preincubation, quantified after 4 minutes, read-out: inhibitory concentration which blocks aggregation to arachidonic acid by 50% (RAW DATA)); 764 µM in experiment [1] (Homo sapiens, individual experiments, human platelet-rich plasma, arachidonic acid 200-400 μM, read-out: pIC50 (-1xLOG(0.000001xDATA)) (converted)); 538 µM and 657 µM in experiment [1] (individual experiments, human platelet-rich plasma, arachidonic acid 200-400 μM, 1 minute preincubation, quantified after 4 minutes, read-out: inhibitory concentration which blocks aggregation to arachidonic acid by 50% (RAW DATA)). The “pIC50 (-1xLOG(0.000001xDATA))” value in experiment [1] (individual experiments, human platelet-rich plasma, arachidonic acid 200-400 μM) is 3.269 and 3.182.
As to `O=C1OC(c2ccc(Cl)cc2)C(O)=C1O` (centres unmarked) [CHTA, 4-(4-chlorophenyl)-2-hydroxytetronic acid], in the experiment on human platelet, the “antilipidemic and antiaggregatory properties” value is “possesses antilipidemic and antiaggregatory properties”. In addition, the “inhibition of platelet function” value in the experiment with platelet function was “inhibits platelet function by both enzyme inhibitory and ROS scavenging mechanisms resulting ultimately in the blockage of thromboxane A2 synthesis”.
For `O=C1OC(c2ccc(-c3ccc(Cl)cc3)cc2)C(O)=C1O` (centres unmarked) [4-(4'-chlorobiphenyl)-2-hydroxytetronic acids], in the experiment with human platelet, the IC50 is 44 µM.
For `CCCCC/C=C\C/C=C\C/C=C\C/C=C\CC[C@@H]1OC(=O)C(O)=C1O` [(S)-3,4 -Dihydroxy-5-[(all-Z)-3,6,9,12-octadecatetraenyl]-2 (5H)-furanone], the values for the IC50 in experiment [1] (setting [2]), in experiment [1] (setting [3]) and in experiment [1] (setting [4]) were 2.27 µM, 1.45 µM and 1.45 µM, respectively.
Turning to `O=C1OC(c2ccc(-c3ccccc3)cc2)C(O)=C1O` (centres unmarked) [Example 4-biphenyl], the IC50 with human platelet was 135 µM.
